Read-outs that look alike come from different tables or passages of the source.
Assays:
[1] = Preliminary embryo-fetal development study
[2] = molecular target: T1, ER (Homo sapiens, UniProt P03372); assay: ER degradation in ER+ cell lines (MCF7); assay type: cell-based; parameters: endogenous in cells; host or cells: MCF7 (and a panel of unnamed ER+ cell lines); conditions: MCF7 cells
T1 sequence (P03372 1-595): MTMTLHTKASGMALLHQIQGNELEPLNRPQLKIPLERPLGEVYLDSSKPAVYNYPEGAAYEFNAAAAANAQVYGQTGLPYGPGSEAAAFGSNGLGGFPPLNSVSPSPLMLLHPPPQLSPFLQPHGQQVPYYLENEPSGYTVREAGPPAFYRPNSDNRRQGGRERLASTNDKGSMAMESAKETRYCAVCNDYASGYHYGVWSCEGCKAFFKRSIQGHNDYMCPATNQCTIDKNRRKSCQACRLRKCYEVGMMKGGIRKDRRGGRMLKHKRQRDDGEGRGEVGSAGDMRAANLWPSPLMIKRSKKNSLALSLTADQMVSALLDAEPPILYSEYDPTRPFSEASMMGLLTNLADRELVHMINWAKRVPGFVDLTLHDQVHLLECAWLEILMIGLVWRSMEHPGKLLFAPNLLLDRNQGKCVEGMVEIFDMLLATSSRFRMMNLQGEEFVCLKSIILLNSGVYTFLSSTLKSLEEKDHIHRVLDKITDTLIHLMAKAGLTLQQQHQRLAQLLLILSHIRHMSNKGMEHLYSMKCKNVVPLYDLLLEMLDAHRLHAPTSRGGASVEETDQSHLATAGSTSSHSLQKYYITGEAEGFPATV

[3] = Tissue distribution in rat; assay type: in vivo; conditions: for Kp at 3 days: 100 mg/kg/day PO 3 days
[4] = Plasma protein binding, mouse; assay type: in vitro ADME; conditions: read-out: free fraction
[5] = FIH Study Parts A and B combined: adverse events; assay type: in vivo, human
Text: Preliminary safety data from Part B (monotherapy dose expansion) is consistent with what has been observed in Part A (monotherapy dose escalation).

[6] = rat, in vivo
[7] = tested on: ER; assay: ER expression in paired tumor biopsies (FIH Part A); assay type: in vivo, human; conditions: 14 paired biopsies, doses up to 500 mg QD, WT or mutant ER
[8] = Turnover in liver microsomes and hepatocytes; assay type: in vitro ADME; conditions: across species
Text: No human unique metabolites were observed. Although it is not thought to be formed via enzymatic conversion, the epimer Compound B was formed to a limited extent in animals.

[9] = molecular target: BCRP (Homo sapiens, UniProt Q9UNQ0); assay: Efflux transporter substrate assessment (inside-out vesicular assay), BCRP; assay type: in vitro ADME
BCRP, sequence (Q9UNQ0 whole entry): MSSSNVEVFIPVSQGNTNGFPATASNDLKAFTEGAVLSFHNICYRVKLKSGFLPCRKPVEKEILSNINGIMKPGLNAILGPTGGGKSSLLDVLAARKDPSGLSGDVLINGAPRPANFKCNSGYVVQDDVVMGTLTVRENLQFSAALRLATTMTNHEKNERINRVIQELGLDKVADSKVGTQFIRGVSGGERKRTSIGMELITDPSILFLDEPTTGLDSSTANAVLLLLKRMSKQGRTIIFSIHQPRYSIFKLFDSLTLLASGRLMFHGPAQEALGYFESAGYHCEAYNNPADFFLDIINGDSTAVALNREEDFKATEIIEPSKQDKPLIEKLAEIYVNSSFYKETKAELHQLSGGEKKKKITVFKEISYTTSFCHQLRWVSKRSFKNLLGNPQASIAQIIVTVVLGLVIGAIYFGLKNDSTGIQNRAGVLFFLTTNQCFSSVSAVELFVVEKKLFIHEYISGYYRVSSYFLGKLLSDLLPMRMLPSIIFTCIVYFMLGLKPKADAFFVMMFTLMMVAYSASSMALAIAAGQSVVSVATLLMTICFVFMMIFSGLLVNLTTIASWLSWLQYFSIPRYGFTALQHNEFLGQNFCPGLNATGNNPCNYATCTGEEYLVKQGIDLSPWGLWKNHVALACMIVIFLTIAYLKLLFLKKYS

[10] = molecular target: T1, ER; assay: Tumor ER levels in MCF7 xenograft; assay type: in vivo, mouse; parameters: from tissue; host or cells: MCF7/estradiol xenograft tumour in mice; conditions: all doses (3, 10, 30 mg/kg), study termination
Experimental: The 30 mg/kg dose was associated with a mean AUC0-24 of 5,717 ng·h/mL. The tumor ER levels were reduced by ≥94% at all doses compared to mice administered vehicle only (FIG. 3B).
The 30 mg/kg dose was associated with a mean AUC0-24 of 5,717 ng·h/mL.

[11] = Plasma protein binding, rat; assay type: in vitro ADME; conditions: read-out: free fraction
[12] = female, Sprague-Dawley, rat, in vivo, oral, 30 mg/kg/day

SMILES: O=C1CC[C@H](N2Cc3cc(N4CCN(CC5CCN(c6ccc([C@@H]7c8ccc(O)cc8CC[C@@H]7c7ccccc7)cc6)CC5)CC4)ccc3C2=O)C(=O)N1 [Compound A, (S)-3-(5-(4-((1-(4-((1R,2S)-6-hydroxy-2-phenyl-1,2,3,4-tetrahydronaphthalen-1-yl)phenyl)piperidin-4-yl)methyl)piperazin-1-yl)-1-oxoisoindolin-2-yl)piperidine-2,6-dione]
- TK animals confirmed pregnant at GD 18 ([1]; 30 mg/kg): 5/6
- females with pregnancy confirmed at GD 21 ([1]; 30 mg/kg): 7/8
- post implantation loss ([1]; 30 mg/kg/day): 47.31%
- mean number of live fetuses ([1]; 30 mg/kg/day, controls 11.3): 7.0 live fetuses/litter
- TK animals confirmed pregnant at GD 18 ([1]; 100 mg/kg): 3/6
- females with pregnancy confirmed at GD 21 ([1]; 100 mg/kg): 4/8
- mean number of live fetuses ([1]; 100 mg/kg/day): no live fetuses/litter
- post implantation loss ([1]; 100 mg/kg/day): 100%
- TK animals confirmed pregnant at GD 18 ([1]; 300 mg/kg): 0/6
- females with pregnancy confirmed at GD 21 ([1]; 300 mg/kg): 0/8
- AUC(0-t) [1, 12]: 4380 ng·h/mL
- Cmax [1, 12]: 291 ng/mL
- external or visceral malformations or variations ([1]; surviving fetuses, 30 mg/kg/day): did not produce any external or visceral malformations or variations
- ER degradation with excess lenalidomide or with carfilzomib [2]: No degradation of ER
- maximum ER degradation [2]: > 90%
- tissue accumulation upon repeat-dose [3]: no signs of tissue accumulation
- Kp at 3 days ([3]; brain, read-out: tissue plasma ratio, brain): ≤ 0.1
- blood brain barrier crossing ([3]; in vivo): does not readily cross the blood brain barrier
- Kp at 3 days ([3]; lung, read-out: tissue plasma ratio, lung): 5.6 to 13.9
- fraction unbound at 1 μM [4]: 0.061
- patients with TEAEs ([5]; 143 of 154, as of 6 Jun 2023): 92.9%
- Any treatment-emergent AE, Any Grade ([5]; Part A + B, N=154): 143 (92.9) n (%)
- Any treatment-emergent AE, Grade 3+ ([5]; Part A + B, N=154): 40 (26.0) n (%)
- Any treatment-related AE, Any Grade ([5]; Part A + B, N=154): 114 (74.0) n (%)
- Any treatment-related AE, Grade 3+ ([5]; Part A + B, N=154): 12 (7.8) n (%)
- TEAE Anemia, Any Grade ([5]; Part A + B, N=154): 16 (10.4) n (%)
- TEAE Anemia, Grade 3+ ([5]; Part A + B, N=154): 2 (1.3) n (%)
- TEAE Arthralgia, Any Grade ([5]; Part A + B, N=154): 34 (22.1) n (%)
- TEAE Arthralgia, Grade 3+ ([5]; Part A + B, N=154): 2 (1.3) n (%)
- TEAE Aspartate aminotransferase increased, Any Grade ([5]; Part A + B, N=154): 21 (13.6) n (%)
- TEAE Aspartate aminotransferase increased, Grade 3+ ([5]; Part A + B, N=154): 3 (1.9) n (%)
- TEAE Back pain, Any Grade ([5]; Part A + B, N=154): 21 (13.6) n (%)
- TEAE Back pain, Grade 3+ ([5]; Part A + B, N=154): 2 (1.3) n (%)
- TEAE Constipation, Any Grade ([5]; Part A + B, N=154): 41 (26.6) n (%)
- TEAE Constipation, Grade 3+ ([5]; Part A + B, N=154): 0 n (%)
- TEAE Decreased appetite, Any Grade ([5]; Part A + B, N=154): 24 (15.6) n (%)
- TEAE Decreased appetite, Grade 3+ ([5]; Part A + B, N=154): 1 (0.6) n (%)
- TEAE Diarrhea, Any Grade ([5]; Part A + B, N=154): 19 (12.3) n (%)
- TEAE Diarrhea, Grade 3+ ([5]; Part A + B, N=154): 0 n (%)
- TEAE Fatigue, Any Grade ([5]; Part A + B, N=154): 62 (40.3) n (%)
- TEAE Fatigue, Grade 3+ ([5]; Part A + B, N=154): 2 (1.3) n (%)
- TEAE Headache, Any Grade ([5]; Part A + B, N=154): 25 (16.2) n (%)
- TEAE Headache, Grade 3+ ([5]; Part A + B, N=154): 1 (0.6) n (%)
- TEAE Hot flush, Any Grade ([5]; Part A + B, N=154): 24 (15.6) n (%)
- TEAE Hot flush, Grade 3+ ([5]; Part A + B, N=154): 0 n (%)
- TEAE Hyperglycemia, Any Grade ([5]; Part A + B, N=154): 16 (10.4) n (%)
- TEAE Hyperglycemia, Grade 3+ ([5]; Part A + B, N=154): 0 n (%)
- TEAE Nausea, Any Grade ([5]; Part A + B, N=154): 46 (29.9) n (%)
- TEAE Nausea, Grade 3+ ([5]; Part A + B, N=154): 1 (0.6) n (%)
- TEAE Pain in extremity, Any Grade ([5]; Part A + B, N=154): 17 (11.0) n (%)
- TEAE Pain in extremity, Grade 3+ ([5]; Part A + B, N=154): 0 n (%)
- TEAE Vomiting, Any Grade ([5]; Part A + B, N=154): 20 (13.0) n (%)
- TEAE Vomiting, Grade 3+ ([5]; Part A + B, N=154): 0 n (%)
- TRAE Arthralgia, Any Grade ([5]; Part A + B, N=154): 22 (14.3) n (%)
- TRAE Arthralgia, Grade 3+ ([5]; Part A + B, N=154): 0 n (%)
- TRAE Constipation, Any Grade ([5]; Part A + B, N=154): 16 (10.4) n (%)
- TRAE Constipation, Grade 3+ ([5]; Part A + B, N=154): 0 n (%)
- TRAE Fatigue, Any Grade ([5]; Part A + B, N=154): 48 (31.2) n (%)
- TRAE Fatigue, Grade 3+ ([5]; Part A + B, N=154): 1 (0.6) n (%)
- TRAE Hot flush, Any Grade ([5]; Part A + B, N=154): 20 (13.0) n (%)
- TRAE Hot flush, Grade 3+ ([5]; Part A + B, N=154): 0 n (%)
- TRAE Nausea, Any Grade ([5]; Part A + B, N=154): 36 (23.4) n (%)
- TRAE Nausea, Grade 3+ ([5]; Part A + B, N=154): 1 (0.6) n (%)
- TEAE Arthralgia ([5]; Parts A and B, N=154): 22.1%
- TEAE Aspartate aminotransferase increased ([5]; Parts A and B, N=154): 13.6%
- TEAE Back pain ([5]; Parts A and B, N=154): 13.6%
- TEAE Constipation ([5]; Parts A and B, N=154): 26.6%
- TEAE Decreased appetite ([5]; Parts A and B, N=154): 15.6%
- TEAE Diarrhea ([5]; Parts A and B, N=154): 12.3%
- TEAE Fatigue ([5]; Parts A and B, N=154): 40.3%
- TEAE Headache ([5]; Parts A and B, N=154): 16.2%
- TEAE Nausea ([5]; Parts A and B, N=154): 29.9%
- TEAE Pain in extremity ([5]; Parts A and B, N=154): 11.0%
- TEAE Vomiting ([5]; Parts A and B, N=154): 13.0%
- TEAE anemia ([5]; Parts A and B, N=154): 10.4%
- TEAE hot flush ([5]; Parts A and B, N=154): 15.6%
- TEAE hyperglycaemia ([5]; Parts A and B, N=154): 10.4%
- TRAE Arthralgia ([5]; Parts A and B, N=154): 14.3%
- TRAE Constipation ([5]; Parts A and B, N=154): 10.4%
- TRAE Fatigue ([5]; Parts A and B, N=154): 31.2%
- TRAE Nausea ([5]; Parts A and B, N=154): 23.4%
- TRAE hot flush ([5]; Parts A and B, N=154): 13.0%
- developmental NOAEL [6]: could not be established
- ER degradation, median decrease [7]: 67%
- turnover in liver microsomes and hepatocytes [8]: relatively low turnover
- substrate of BCRP [9]: unlikely to be a substrate
- tumor ER levels reduced vs vehicle [10]: ≥ 94%
- fraction unbound at 1 μM [11]: 0.082
